The results in this text go back to ChEMBL document CHEMBL4715903, “Design, Synthesis, and Biological Evaluation of IRAK4-Targeting PROTACs” (ACS Med Chem Lett, 2021).

Activity calls are given as the source filed them. The calls are words filed in the database; no cut-off is given here.

Assay [1] concerns the target T1, Protein cereblon/Interleukin-1 receptor-associated kinase 4 (Homo sapiens) (UniProt Q9NWZ3+Q96SW2). As to the kind of experiment: Protac activity at CRBN/IRAK4 in human TMD8 cells harboring MYD88 L265P mutant assessed as induction of IRAK4 degradation by measuring reduction in IRAK4 protein level at 1 uM incubated for 24 hrs by Western blot analysis. The assay is classed as cell-based.

The target in assay [2] is T1, Protein cereblon/Interleukin-1 receptor-associated kinase 4 (Homo sapiens). Kind of assay: Protac activity at CRBN/IRAK4 in human OCILY10 cells harboring MYD88 L265P mutant assessed as induction of IRAK4 degradation by measuring reduction in IRAK4 protein level at 1 uM incubated for 24 hrs by Western blot analysis. The format is cell-based.
For assay [3], the system named is TMD8. As to the kind of experiment: Antiproliferative activity against human TMD8 cells harboring MYD88 L265P mutant assessed as inhibition of cell growth incubated for 72 hrs by CCK-8 assay. The assay is classed as functional, cell-based. The note with it: TMD8, 72 h.
Assay [4] addresses T2, Interleukin-1 receptor-associated kinase 4 (Homo sapiens, UniProt Q9NWZ3).
T2 sequence (Q9NWZ3 whole entry): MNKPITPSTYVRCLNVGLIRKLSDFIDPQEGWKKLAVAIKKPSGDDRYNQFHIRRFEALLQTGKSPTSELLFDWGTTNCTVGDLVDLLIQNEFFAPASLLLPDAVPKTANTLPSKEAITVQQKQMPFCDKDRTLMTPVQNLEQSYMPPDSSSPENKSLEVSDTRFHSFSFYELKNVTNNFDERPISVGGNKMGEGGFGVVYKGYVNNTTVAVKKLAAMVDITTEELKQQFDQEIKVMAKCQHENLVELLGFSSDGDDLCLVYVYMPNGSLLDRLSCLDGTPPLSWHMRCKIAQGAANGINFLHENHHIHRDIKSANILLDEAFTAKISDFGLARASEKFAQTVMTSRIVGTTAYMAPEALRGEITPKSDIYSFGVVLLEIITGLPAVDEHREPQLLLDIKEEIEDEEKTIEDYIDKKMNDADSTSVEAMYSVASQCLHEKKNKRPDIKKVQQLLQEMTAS
Kind of assay: Inhibition of human full length N-terminal His6-tagged recombinant IRAK4 expressed in baculovirus-infected Sf21 cells by Z'-LYTE assay.

The test system of assay [5] is OCI-Ly10. As to the kind of experiment: Antiproliferative activity against human OCILY10 cells harboring MYD88 L265P mutant assessed as inhibition of cell growth incubated for 72 hrs by CCK-8 assay. The assay is classed as functional, cell-based. The conditions noted are these: OCI-Ly10, 72 h.
Assay [6] concerns the target T1, Protein cereblon/Interleukin-1 receptor-associated kinase 4 (Homo sapiens). As to the kind of experiment: Protac activity at CRBN/IRAK4 in human OCILY10 cells assessed as inhibition of NFkappaB p65 phosphorylation at 2.5 to 20 uM incubated for 48 hrs by Western blot analysis. The assay is classed as cell-based. The note with it: dose 2.5-20 µM.
Assay [7] shares this target. Kind of assay: Protac activity at CRBN/IRAK4 in human TMD8 cells assessed as inhibition of NF-kappaB p65 phosphorylation by Western blot analysis. The format is cell-based. The conditions noted are these: dose 0.1-10 µM.
For assay [8] the target is unchanged. Kind of assay: Protac activity at CRBN/IRAK4 in human OCILY10 cells assessed as inhibition of NF-kappaB p65 phosphorylation by Western blot analysis. The format is cell-based. The note with it: dose 0.1-10 µM.
Assay [9] has the same target. Kind of assay: Protac activity at CRBN/IRAK4 in human TMD8 cells assessed as inhibition of IKKalpha/beta phosphorylation by Western blot analysis. The format is cell-based. The conditions noted are these: dose 0.1-10 µM.
The target is the same in assay [10]. Kind of assay: Protac activity at CRBN/IRAK4 in human OCILY10 cells assessed as inhibition of IKKalpha/beta phosphorylation by Western blot analysis. The assay is classed as cell-based. The conditions noted are these: dose 0.1-10 µM.
Assay [11] has the same target. Kind of assay: Protac activity at CRBN/IRAK4 in human TMD8 cells assessed as inhibition of IRAK4 phosphorylation by Western blot analysis. The assay is classed as cell-based. The conditions noted are these: dose 0.1-10 µM.
The target is the same in assay [12]. As to the kind of experiment: Protac activity at CRBN/IRAK4 in human OCILY10 cells assessed as inhibition of IRAK4 phosphorylation by Western blot analysis. The assay is classed as cell-based. The note with it: dose 0.1-10 µM.
For assay [13] the target is unchanged. Kind of assay: Protac activity at CRBN/IRAK4 in human TMD8 cells harboring MYD88 L265P mutant assessed as induction of IRAK4 degradation at 1 uM in presence of IRAK4 inhibitor, Methyl 4-(5-ethoxy-1-methyl-6-(6-(trifluoromethyl)picolinamido)-1H-benzo[d]imidazol-2-yl)-2,2-dimethylbutanoate by Western blot analysis. The assay is classed as cell-based.
For assay [14] the target is unchanged. Kind of assay: Protac activity at CRBN/IRAK4 in human OCILY10 cells harboring MYD88 L265P mutant assessed as induction of IRAK4 degradation at 1 uM in presence of IRAK4 inhibitor, Methyl 4-(5-ethoxy-1-methyl-6-(6-(trifluoromethyl)picolinamido)-1H-benzo[d]imidazol-2-yl)-2,2-dimethylbutanoate by Western blot analysis. The assay is classed as cell-based.
For assay [15] the target is unchanged. As to the kind of experiment: Protac activity at CRBN/IRAK4 in human TMD8 cells harboring MYD88 L265P mutant assessed as induction of IRAK4 degradation at 1 uM in presence of CRBN recruiter, pomalidomide by Western blot analysis. The assay is classed as cell-based.
For assay [16] the target is unchanged. Kind of assay: Protac activity at CRBN/IRAK4 in human OCILY10 cells harboring MYD88 L265P mutant assessed as induction of IRAK4 degradation at 1 uM in presence of CRBN recruiter, pomalidomide by Western blot analysis. The assay is classed as cell-based.
Assay [17] has the same target. Kind of assay: Protac activity at CRBN/IRAK4 in human TMD8 cells harboring MYD88 L265P mutant assessed as induction of IRAK4 degradation at 1 uM pretreated with proteasome inhibitor, MG132 for 2 hrs followed by compound addition by Western blot analysis. The format is cell-based.
The target is the same in assay [18]. Kind of assay: Protac activity at CRBN/IRAK4 in human OCILY10 cells harboring MYD88 L265P mutant assessed as induction of IRAK4 degradation at 1 uM pretreated with proteasome inhibitor, MG132 for 2 hrs followed by compound addition by Western blot analysis. The format is cell-based.
Assay [19] shares this target. Kind of assay: Protac activity at CRBN/IRAK4 in human TMD8 cells harboring MYD88 L265P mutant assessed as induction of IRAK4 degradation by measuring reduction in IRAK4 protein level at 1 uM by Western blot analysis. The format is cell-based. The note with it: time 1-24 hrs, TDE = time-dependent effect.
Assay [20] shares this target. Kind of assay: Protac activity at CRBN/IRAK4 in human OCILY10 cells harboring MYD88 L265P mutant assessed as induction of IRAK4 degradation by measuring reduction in IRAK4 protein level at 1 uM by Western blot analysis. The format is cell-based. The conditions noted are these: time 1-24 hrs, TDE = time-dependent effect.
Assay [21] shares this target. Kind of assay: Protac activity at CRBN/IRAK4 in human TMD8 cells harboring MYD88 L265P mutant assessed as induction of IRAK4 degradation by measuring reduction in IRAK4 protein level incubated for 24 hrs by Western blot analysis. The assay is classed as cell-based. The note with it: dose 0.1-10 µM.
For assay [22] the target is unchanged. Kind of assay: Protac activity at CRBN/IRAK4 in human OCILY10 cells harboring MYD88 L265P mutant assessed as induction of IRAK4 degradation by measuring reduction in IRAK4 protein level incubated for 24 hrs by Western blot analysis. The assay is classed as cell-based. The conditions noted are these: dose 0.1-10 µM.
Assay [23] has as its system OCI-LY19. As to the kind of experiment: Antiproliferative activity against human OCILY19 cells harboring wild type MYD88 assessed as inhibition of cell growth incubated for 72 hrs by CCK-8 assay. The format is functional, cell-based.

T1 sequence (Q96SW2 whole entry, looked up, one chain of several): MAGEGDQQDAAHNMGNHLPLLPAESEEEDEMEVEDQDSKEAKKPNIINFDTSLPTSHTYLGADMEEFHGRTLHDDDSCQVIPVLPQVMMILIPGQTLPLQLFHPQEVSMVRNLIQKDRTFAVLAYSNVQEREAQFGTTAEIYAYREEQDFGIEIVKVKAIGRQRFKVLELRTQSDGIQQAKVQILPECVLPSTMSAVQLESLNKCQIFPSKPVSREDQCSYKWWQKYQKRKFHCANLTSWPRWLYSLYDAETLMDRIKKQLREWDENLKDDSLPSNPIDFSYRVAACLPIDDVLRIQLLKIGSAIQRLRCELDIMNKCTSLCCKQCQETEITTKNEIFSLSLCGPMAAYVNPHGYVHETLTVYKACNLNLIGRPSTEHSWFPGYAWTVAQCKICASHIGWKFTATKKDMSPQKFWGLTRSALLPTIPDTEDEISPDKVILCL

Turning to `CCOc1cc2nc(CCC(C)(C)C(=O)NCCOCCNc3cccc4c3C(=O)N(C3CCC(=O)NC3=O)C4=O)n(C)c2cc1NC(=O)c1cccc(C(F)(F)F)n1` (centres undefined), the result in assay [1] and in assay [2] was inactive.

With `CCOc1cc2nc(CCC(C)(C)C(=O)NCCCCCNc3cccc4c3C(=O)N(C3CCC(=O)NC3=O)C4=O)n(C)c2cc1NC(=O)c1cccc(C(F)(F)F)n1` (centres undefined), the result in assay [1] and in [2] was inactive.

Turning to `CCOc1cc2nc(CCC(C)(C)C(=O)NCCNc3cccc4c3C(=O)N(C3CCC(=O)NC3=O)C4=O)n(C)c2cc1NC(=O)c1cccc(C(F)(F)F)n1` (centres undefined), the result in assay [1] and in [2] was inactive.

For `CCOc1cc2nc(CCC(C)(C)C(=O)NCCCCCCCNc3cccc4c3C(=O)N(C3CCC(=O)NC3=O)C4=O)n(C)c2cc1NC(=O)c1cccc(C(F)(F)F)n1` (centres undefined), in assay [1], the outcome was Active. In addition, the result in assay [2] was inactive.

As for `CCOc1cc2nc(CCC(C)(C)C(=O)OC)n(C)c2cc1NC(=O)c1cccc(C(F)(F)F)n1`, the figures for the 50% inhibitory concentration (IC50) in [3], in [4] and in assay [5] were greater than 50 µM, 0.0707 µM and greater than 50 µM, respectively.

As for `CCOc1cc2nc(CCC(C)(C)C(=O)NCCCCNc3cccc4c3C(=O)N(C3CCC(=O)NC3=O)C4=O)n(C)c2cc1NC(=O)c1cccc(C(F)(F)F)n1` (centres undefined), the result in assay [1] and in [2] was inactive.

As for `CCOc1cc2nc(CCC(C)(C)C(=O)NCCOCCOCCNc3cccc4c3C(=O)N(C3CCC(=O)N(C)C3=O)C4=O)n(C)c2cc1NC(=O)c1cccc(C(F)(F)F)n1` (centres undefined), the values for the IC50 in assay [3] and in [5] were greater than 50 µM and 11 µM, respectively. Further, the result in assay [1], in assay [2] and in assay [6] was inactive.

For `CCOc1cc2nc(CCC(C)(C)C(=O)NCCCNc3cccc4c3C(=O)N(C3CCC(=O)NC3=O)C4=O)n(C)c2cc1NC(=O)c1cccc(C(F)(F)F)n1` (centres undefined), the outcome in assay [1] and in assay [2] was inactive.

Consider `CCOc1cc2nc(CCC(C)(C)C(=O)NCCOCCOCCNc3cccc4c3C(=O)N(C3CCC(=O)NC3=O)C4=O)n(C)c2cc1NC(=O)c1cccc(C(F)(F)F)n1` (centres undefined), for which the concentration for half-maximal inhibition (IC50) in assay [3] came to 7.6 µM; in [5] it was 4.6 µM. The Activity result in [7], in assay [8], in assay [9], in assay [10], in [11] and in assay [12] was “Dose-dependent effect” each time. The Activity entry in assay [19] is “Tde”; in assay [20], “Tde”; in assay [21], “Dose-dependent effect”; in assay [22] it was “Dose-dependent effect”. Further, the outcome in assay [13], in assay [14], in assay [15], in assay [16], in [17] and in assay [18] was inactive. Further, the outcome in assay [23] was inactive. Also, the outcome in [1], in [2] and in assay [6] was Active.

`CCOc1cc2nc(CCC(C)(C)C(=O)NCCCCCCNc3cccc4c3C(=O)N(C3CCC(=O)NC3=O)C4=O)n(C)c2cc1NC(=O)c1cccc(C(F)(F)F)n1` (centres undefined): the result in [1] and in assay [2] was inactive.
